In one series the test system is NCI-H929. The series is described as follows: Cell viability (CellTiter-Glo), NCI-H929. Particulars: Homo sapiens; NCI-H929, MM, p53 wild-type. The series is classed as cell-based. As for the experimental part: (§1) CHP-134 was purchased from Sigma Aldrich, MOLM-13 was purchased from AddexBio, and NB-1 was purchased from Sekisui XenoTech. All other cell lines were purchased from American Type Culture Collection. For all cell lines, identity was confirmed by short tandem repeat profiling and culturing was performed in recommended growth medium. For studies evaluating cellular effects of compound treatment, 250 to 2,000 cells in 40 μl of recommended medium were seeded per well in 384-well plates (Corning 3764). DMSO-solubilized compounds were added in duplicate in a two-fold dilution series using a D300e Digital Dispenser (Hewlett-Packard). Following a 5-day incubation, cell viability was measured using CellTiter-Glo (Promega) following the manufacturer's instructions. Luminescence was measured using a CLARIOstar plate reader (BMG LABTECH) and normalized to that of DMSO-treated cells. IC50 values were determined by non-linear regression using a 4-parameter fit in Prism (GraphPad Software). Inhibitor profiling of the 430-cell line panel was conducted and analyzed similarly.
(§2) USP7 inhibition by the compounds of Examples 31 and 124 reduced the viability of several p53-wild type blood cancer cell lines, including M07e, OCI-AML5 and MOLM13, in vitro as shown in the following Table 3. Idasanutlin was used as a positive control, and as expected these cell lines were also sensitive to this compound.

The next series has as its system H526. Kind of series: Cell viability (CellTiter-Glo), H526. In kind it is cell-based. The following applies: Homo sapiens, NCI-H526. The method, then:
as §1
(§3) In addition to the many p53 wild-type cell lines in the cell line panel that were sensitive to USP7 inhibition, a subset of p53 mutant cell lines that were inhibited by our USP7 inhibitors were identified and are shown in Table 5.
(§4) The effect of pharmacological inhibition of USP7 on the viability of the p53 mutant small cell lung cancer cell line, H526 was further evaluated. […] In contrast, idasanutlin, whose inhibitory effect is dependent on a functional p53 pathway, had no effect.
(In general: Cellular ATP, detected with luciferase, serves as a proxy for viable cell number.)

A further series relates to OCI-AML5. Kind of series: Cell viability (CellTiter-Glo), OCI-AML5. In kind it is cell-based. The following applies: Homo sapiens, OCI-AML-5, p53 wild-type. The method, then:
as §1, §2

The nature of series [1]: Tolerability in tumor-free NOD-SCID mice. In kind it is in vivo. Particulars: daily oral 50 mg/kg and 100 mg/kg, preliminary experiments. The method, then: (§5) The effects of USP7 inhibition were assessed in vivo in the MM.1S xenograft model in NOD-SCID mice via daily oral dosing of the USP7 inhibitor 3-((7-(5-chloro-2-(((2S,6S)-2,6-dimethylpiperazin-1-yl)methyl)-3-methylphenyl)thieno[3,2-b]pyridin-2-yl)methyl)-3-azabicyclo[3.1.0]hexane-2,4-dione (the compound of Example 31) at 50 mg/kg and 100 mg/kg. […] However, brief dosing holidays allowed the mice to recover and dosing to continue.

In a further series the target is USP7 (Homo sapiens, UniProt Q93009). The series is described as follows: USP7 inhibitory potency (IC50). The series is classed as biochemical. As for the experimental part: Activity for compounds described herein is provided in Table 2, wherein potency levels are provided as follows: (Potency: USP7 IC50: A<0.01 μM; B=0.01-0.1 μM; C=>0.1 μM.
The next series concerns SH-SY5Y. The series is described as follows: Cell viability (CellTiter-Glo), SH-SY5Y. The series is classed as cell-based. Particulars: Homo sapiens, neuroblastoma, MYC amplified, p53 wild-type. The method, then:
as §1
(§6) USP7 has been reported to stabilize MYCN (also referred to as MYCN proto-oncogene, a gene that is a member of the MYC family which is over-expressed in a variety of tumors). Since MYCN amplification is an established driver mutation in neuroblastoma, the effect of USP7 inhibition on a panel of p53 wild-type, MYCN- or MYC-amplified neuroblastoma cell lines was tested. The USP7 inhibitors of Examples 31 and 124 reduced viability of all three MYCN-amplified and two MYC-amplified neuroblastoma cell lines tested as shown in Table 4. Idasanutlin was used as a positive control, and as expected these cell lines were also sensitive to this compound.

For another series, the system named is MOLP8. The series is described as follows: Cell viability (CellTiter-Glo), MOLP8. In kind it is cell-based. Particulars: Homo sapiens, MOLP-8; MOLP8, MM, p53 wild-type. As for the experimental part:
as §1, §2

A further series deals with M07e. The series is described as follows: Cell viability (CellTiter-Glo), M07e. The series is classed as cell-based. Particulars: M-07e, AML, p53 wild-type. The method, then: as §1, §2
The subject of a further series is MM.1S. Kind of series: Cell viability (CellTiter-Glo), MM.1S. The series is classed as cell-based. The following applies: Homo sapiens, MM1.S, p53 wild-type. The method, then: as §1, §2
The next series has as its system HCC1937. The series is described as follows: Cell viability (CellTiter-Glo), HCC1937. The series is classed as cell-based. The following applies: Homo sapiens; HCC1937, breast, triple-negative, BRCA1 mutant, p53-mutant. As for the experimental part: as §1, §3
For a further series, the system named is MOLM13. The series is described as follows: Cell viability (CellTiter-Glo), MOLM13. In kind it is cell-based. Particulars: Homo sapiens, MOLM-13; MOLM13, AML, p53 wild-type. The method, then:
as §1, §2

The test system of the next series is EOL-1. Kind of series: Cell viability (CellTiter-Glo), EOL-1. In kind it is cell-based. The following applies: Homo sapiens, EOL1; EOL-1, AML, p53 wild-type. As for the experimental part:
as §1, §2

The subject of another series is CHP-134. The series is described as follows: Cell viability (CellTiter-Glo), CHP-134. In kind it is cell-based. The following applies: Homo sapiens; CHP-134, neuroblastoma, MYCN amplified, p53 wild-type. As for the experimental part: as §1, §6
The subject of the next series is LA-N-2. The series is described as follows: Cell viability (CellTiter-Glo), LA-N-2. Particulars: LA-N-2, neuroblastoma, MYCN-amplified, p53-mutant. The series is classed as cell-based. The method, then:
as §1, §3

The test system of the next series is NB-1. Kind of series: Cell viability (CellTiter-Glo), NB-1. The series is classed as cell-based. The following applies: Homo sapiens, NB1; NB-1, neuroblastoma, MYCN amplified, p53 wild-type. The method, then:
as §1, §6

For the next series, the system named is SK-N-DZ. The series is described as follows: Cell viability (CellTiter-Glo), SK-N-DZ. The series is classed as cell-based. Particulars: Homo sapiens, neuroblastoma, MYCN-amplified, p53-mutant. As for the experimental part: as §1, §3
Another series relates to MM.1S xenograft. Kind of series: MM.1S xenograft model in NOD-SCID mice. The series is classed as in vivo. As for the experimental part: (§7) MM. 1S and H526 xenograft studies were conducted according to the guidelines approved by the Applicant's Institutional Animal Care and Use Committee (IACUC). MM.1S cells were inoculated in PBS into irradiated NOD/SCID mice, while H526 cells were inoculated in PBS/Matrigel (Corning) into Nu/Nu mice (Jackson Laboratories). Mice were randomized into groups when mean tumor size reached 150 mm^3 (MM.1S) or 50-100 mm^3 (H526), respectively, and drug administration by oral gavage was started on day of randomization. Tumor volumes and body weights were subsequently measured twice per week. Tumor volumes were calculated using the formula: V=0.5(A×B^2), where A and B are the long and short diameters of the tumor, respectively.
as §5

The next series relates to MYCN. Kind of series: Western blot of MYCN in H526 cells. The series is classed as cell-based. Particulars: after 2, 8 or 24 hours of treatment. As for the experimental part:
(§8) For Western blotting, compound-treated cells were lysed in RIPA lysis buffer (ThermoScientific) containing Halt Protease and Phosphatase Inhibitor Cocktail (Life Technologies). Lysates were quantified using the BCA protein assay (Pierce) and equivalent protein was separated by SDS-PAGE (4-12%, ThermoScientific). Following electrophoresis, proteins were transferred to PVDF membranes. […] Caspase activation assays were performed on compound-treated cells using the Caspase-Glo 3/7 Assay Kit (Promega) according to the manufacturer's protocol, and luminescence was measured using a CLARIOstar plate reader (BMG LABTECH). […] Data were collected using FACSCanto (Becton Dickinson) and Attune (Thermo Fisher Scientific) flow cytometers and analyzed with FlowJo software (FlowJo LLC). […] Lysates were quantified using the BCA protein assay (Pierce) and equivalent protein was used in the PathScan Phospho-S6 Ribosomal Protein (Ser235/236) Sandwich ELISA Kit (Cell Signaling) according to the manufacturer's protocol. Absorbance was measured using the Spectramax 300 plate reader (Molecular Devices).
(§9) The effect of pharmacological inhibition of USP7 on the viability of the p53 mutant small cell lung cancer cell line, H526 was further evaluated. […]
On the technique in general: In western blotting, separated proteins are transferred to a membrane and probed.

In another series the test system is H526 xenograft. Kind of series: H526 xenograft model in athymic nude mice. The series is classed as in vivo. As for the experimental part:
as §7, §4

Series [2] in a line: Tolerability in tumor-free mice (preliminary to H526 study). The series is classed as in vivo. Particulars: preliminary testing, oral 50 mg/kg twice daily or 100 mg/kg daily.
In the next series the test system is p21. Kind of series: Western blot of p21 in H526 cells. The following applies: after 2, 8 or 24 hours of treatment. The series is classed as cell-based. The method, then:
as §8, §9

Setting [3] is: H526, lung, small cell, p53-mutant, read-out: CC50.
Setting [4] is: H526, p53 mutant small cell lung cancer, CellTiter-Glo assay, read-out: CC50 (viability of H526 in vitro).
The mark [5] stands for this setting: H526 xenograft, athymic nude mice, twice-daily oral 50 mg/kg (FIG. 2) or daily oral 100 mg/kg (data not shown).

Like-named read-outs stand apart in the source and are kept apart here. Where only a bound is given, the exact number is not on record here.

USP7, sequence (Q93009 whole entry): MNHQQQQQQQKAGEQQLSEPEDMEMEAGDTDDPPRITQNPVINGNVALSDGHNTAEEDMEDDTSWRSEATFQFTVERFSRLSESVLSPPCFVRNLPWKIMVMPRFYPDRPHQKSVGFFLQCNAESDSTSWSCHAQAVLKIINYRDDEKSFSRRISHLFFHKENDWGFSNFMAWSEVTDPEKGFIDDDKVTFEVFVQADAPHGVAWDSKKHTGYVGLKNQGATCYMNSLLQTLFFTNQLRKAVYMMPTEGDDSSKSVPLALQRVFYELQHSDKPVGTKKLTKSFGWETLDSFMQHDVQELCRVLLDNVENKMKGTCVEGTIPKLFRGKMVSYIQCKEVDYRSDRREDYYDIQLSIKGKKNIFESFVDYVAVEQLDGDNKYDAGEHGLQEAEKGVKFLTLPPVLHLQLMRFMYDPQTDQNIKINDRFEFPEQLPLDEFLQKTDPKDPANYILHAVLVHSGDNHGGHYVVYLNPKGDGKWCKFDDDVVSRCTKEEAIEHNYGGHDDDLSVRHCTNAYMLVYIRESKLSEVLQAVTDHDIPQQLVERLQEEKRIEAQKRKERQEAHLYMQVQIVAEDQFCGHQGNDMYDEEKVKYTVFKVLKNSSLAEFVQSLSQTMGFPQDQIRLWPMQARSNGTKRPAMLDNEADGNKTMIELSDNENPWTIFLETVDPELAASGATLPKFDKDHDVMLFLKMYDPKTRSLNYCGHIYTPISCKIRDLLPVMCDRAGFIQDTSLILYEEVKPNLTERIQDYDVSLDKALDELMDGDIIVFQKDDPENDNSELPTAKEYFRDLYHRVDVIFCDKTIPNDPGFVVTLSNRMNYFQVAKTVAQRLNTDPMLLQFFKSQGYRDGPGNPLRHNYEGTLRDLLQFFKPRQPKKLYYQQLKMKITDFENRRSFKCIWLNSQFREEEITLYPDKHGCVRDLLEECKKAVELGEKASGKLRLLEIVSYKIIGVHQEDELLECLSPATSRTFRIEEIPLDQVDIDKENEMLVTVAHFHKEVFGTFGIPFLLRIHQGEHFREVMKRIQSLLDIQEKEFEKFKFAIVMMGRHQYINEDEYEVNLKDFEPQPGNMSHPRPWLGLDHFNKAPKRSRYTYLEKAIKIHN

By CC50 is commonly meant the concentration that lowers cell viability or growth by half. As usually defined, the IC50 is the concentration at which inhibition is half-maximal. For `Cc1cc(Cl)cc(-c2ccnc3cc(CN4C(=O)C5CC5C4=O)sc23)c1CN1[C@@H](C)CNC[C@@H]1C` (stereo partly drawn) [Example 31, 3-((7-(5-chloro-2-(((2S,6S)-2,6-dimethylpiperazin-1-yl)methyl)-3-methylphenyl)thieno[3,2-b]pyridin-2-yl)methyl)-3-azabicyclo[3.1.0]hexane-2,4-dione], the cytotoxic concentration (CC50) is 400 nM with NCI-H929; 500 nM in the series on H526 (setting [3]); 500 nM with H526 (setting [4]); 200 nM in the series on OCI-AML5; 1800 nM in the series with SH-SY5Y; 200 nM in the series with MOLP8. The CC50 in the series with M07e is 100 nM; with MM.1S, 100 nM; in the series with HCC1937, 100 nM; in the series on MOLM13 it was 100 nM; with EOL-1, 40 nM; in the series on CHP-134 it was 500 nM. The CC50 in the series on LA-N-2 is 600 nM; in the series on NB-1, 600 nM; in the series with SK-N-DZ, 200 nM. Moreover, the tolerability result in series [1] is “well tolerated”. On USP7, the IC50 is less than 10 nM. Moreover, the tumor growth result with MM.1S xenograft (MM.1S xenograft, NOD-SCID mice, daily oral dosing at 50 mg/kg and 100 mg/kg, FIG. 1A) is given as “effectively inhibited MM.1S tumor growth”. Also, in the series on MM.1S xenograft (MM.1S xenograft, NOD-SCID mice, daily oral dosing at 50 mg/kg and 100 mg/kg, FIG. 1B), the survival result was “prolonged survival in a dose-dependent manner”. In addition, the body weight result in the series on MM.1S xenograft (tumor-bearing NOD-SCID mice, longer-term xenograft study, daily oral 50 and 100 mg/kg, recovered with brief dosing holidays) was “dose-dependent body weight loss in a fraction of mice”.
In the case of `Cc1cc(Cl)cc(-c2ccnc3cc(CN4C(=O)C5C(C4=O)C5(C)C)sc23)c1C[C@@H]1CNCCO1` (stereo partly drawn) [Example 124, 3-((7-(5-chloro-3-methyl-2-(((R)-morpholin-2-yl)methyl)phenyl)thieno[3,2-b]pyridin-2-yl)methyl)-6,6-dimethyl-3-azabicyclo[3.1.0]hexane-2,4-dione], the CC50 in the series on H526 (setting [3]) was 500 nM; in the series on H526 (setting [4]) it was 500 nM; in the series on OCI-AML5, 200 nM; in the series on SH-SY5Y, 1900 nM; with M07e it was 200 nM; with MM.1S, 100 nM. In addition, the CC50 in the series on MOLM13 amounted to 400 nM; in the series on CHP-134, 600 nM; with LA-N-2, 200 nM; with NB-1, 500 nM; in the series with SK-N-DZ, 200 nM. In addition, in the series with MYCN, the MYCN protein levels entry is given as “did not reduce MYCN protein levels”. Also, the IC50 on USP7 was less than 10 nM. Moreover, the survival entry with H526 xenograft (setting [5]) is reported as “prolonged survival”. The tumor growth result in the series on H526 xenograft (setting [5]) is reported as “inhibited tumor growth”. In addition, the tolerability result in the series on H526 xenograft (tumor-bearing mice of the H526 study, oral 50 mg/kg twice daily or 100 mg/kg daily) is on record as “well tolerated”; in [2], “well tolerated”. Moreover, the p21 level entry with p21 was “did not induce any change in p21 level”.

The values are drawn from US11084829B2, “Ubiquitin-specific-processing protease 7 (USP7) modulators and uses thereof” (RAPT THERAPEUTICS, INC., priority 2018, dated 2021).
